These results are taken from PubChem BioAssay (NCI).

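Cells were grown in 96-well plates and exposed to each compound for 48 hours at five concentrations; endpoints were interpolated linearly between bracketing concentrations, or set to the highest concentration if not reached. GI50: concentration for 50% inhibition of growth. At the TGI there is no net growth.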

Holding throughout (test): growth of human tumour cells (NCI), 48 h
Assay [1] concerns CCRF-CEM leukemia.
For assay [2], the system named is OVCAR-5 ovarian.
Assay [3] deals with NCI-H226 lung.
For assay [4], the system named is SW-620 colon.
The test system of assay [5] is UO-31 renal.
The subject of assay [6] is SNB-75 CNS.
The test system of assay [7] is DU-145 prostate.
For assay [8], the system named is NCI/ADR-RES ovarian.
The subject of assay [9] is MDA-MB-435.
Assay [10] deals with T-47D breast.

On to `CC(=O)O[C@@H]1CC(C)C2CC2C2=C(C(O)OC2O)[C@@H]1C(C)CCC=C(C)C` (stereo partly drawn), for which the TGI in [1] was 51.9 µM; in [2] it was 35.1 µM; in assay [3], 36.5 µM; in assay [4], 51.2 µM; in [5] it was 47.6 µM; in assay [6], 76.1 µM.
`COc1cc2c(cc1OC)[C@@H](C(O)c1ccccc1)NCC2` (stereo partly drawn): the TGI in assay [1], in [2], in [3], in assay [4], in assay [5] and in assay [6] was over 100 µM in each case.
For the compound `Cc1cccc(C)c1NC(=O)C(=O)CC(=O)CO`, the TGI in assay [1], in assay [2], in assay [3], in [4], in assay [5] and in assay [6] was over 100 µM in each case.
On to `CN(C)c1ccc(/C=C2\N=C(c3ccc(N)cc3)OC2=O)cc1`, for which the TGI in assay [1], in assay [2], in assay [3], in assay [4], in assay [5] and in [6] was over 100 µM in each case.
As for `Clc1cc(Cl)cc(N2N=C(c3cccc(Nc4ccncc4)c3)CC2c2ccc(Br)cc2)c1` (stereo not drawn), the GI50 in assay [1] was 3.02 µM; in assay [7], 1.84 µM; in assay [8], 1.91 µM; in assay [2], 1.55 µM; in assay [4] it was 1.61 µM; in assay [9] it was 1.61 µM. Further, the GI50 in [5] is 1.39 µM; in assay [6], 1.42 µM. The TGI in [1] is 31.2 µM; in assay [7], 3.41 µM; in assay [8] it was 3.86 µM; in assay [2], 2.92 µM; in assay [4], 3.04 µM; in [9] it was 3 µM. The TGI in assay [5] is 2.69 µM; in [6] it was 2.98 µM.
Consider `N#CC1(c2nc3ccccc3o2)C(=O)C(=O)N(c2ccc(Cl)c(Cl)c2)C(=O)C1=O`, for which the TGI in assay [1], in assay [2], in [3], in assay [4], in assay [5] and in [6] was over 100 µM throughout.
For the compound `Cc1ccc(C2=Nc3ccccc3NC(=O)C2)cc1`, the TGI in [1], in [2], in assay [3], in assay [4], in [5] and in assay [6] was over 100 µM in each case.
For `CC(=S)NNC(=O)c1ccncc1`, the TGI in [1], in assay [2], in assay [3], in [4], in assay [5] and in [6] was over 100 µM throughout.
Turning to `C=C(CN1CCN(c2ccccc2F)CC1)c1ccc(C(=O)Nc2ccccc2N)cc1`, the GI50 is 1.6 µM in [7]; 1.29 µM in assay [2]; 2.34 µM in [3]; 3.84 µM in assay [10]; 1.97 µM in assay [4]; 1.32 µM in [5]. For the same compound, in [6], the GI50 is 2.27 µM. Further, the TGI in [7] is 6.06 µM; in [2] it was over 100 µM; in assay [3], 17.3 µM; in assay [10] it was over 100 µM; in assay [4], over 100 µM; in assay [5], 17.3 µM. The TGI in assay [6] was found to be 8.14 µM.
`CC(C)(C)C(=O)C(c1ccc(-c2cscn2)cc1)c1ccc(-c2cscn2)cc1`: the TGI in assay [1] was over 100 µM; in assay [2], over 100 µM; in [3] it was over 78.7 µM; in [4], over 100 µM; in assay [5] it was over 81.9 µM; in assay [6], 25.6 µM.
As for `COC1CC(OS(=O)(=O)c2ccc(C)cc2)C(OS(=O)(=O)c2ccc(C)cc2)C(COS(=O)(=O)c2ccc(C)cc2)O1` (stereo not drawn), the TGI was over 100 µM in [1]; 51.5 µM in assay [2]; 10.4 µM in assay [3]; 57.7 µM in assay [4]; 12.1 µM in assay [5]; 2.48 µM in assay [6].
On to `O=Cc1[nH]c2ccccc2c1Br`, for which the TGI in assay [1] was 99.2 µM; in assay [2], over 100 µM; in [3] it was over 100 µM; in assay [4] it was over 100 µM; in assay [5], 97 µM; in assay [6], 52.6 µM.
For the compound `COc1ccc(/C=C(\C#N)c2cc(OC)c3c(c2)OCO3)cc1`, the GI50 is 0.0226 µM in assay [1]; 0.0256 µM in assay [7]; under 0.01 µM in [8]; 0.0797 µM in assay [2]; 0.0249 µM in [3]; under 0.01 µM in [4]. The results for the GI50 in assay [9], in assay [5] and in assay [6] were under 0.01 µM, 0.251 µM and 0.0102 µM, respectively. Moreover, the TGI in [1] was over 100 µM; in assay [7], 0.186 µM; in assay [8] it was 0.58 µM; in assay [2], 80.9 µM; in assay [3] it was 2.56 µM; in assay [4], over 100 µM. Besides, in assay [5], the TGI was over 55.8 µM.
For the compound `Cc1cc2c(c(C#N)c1C)NC(=O)C(CC(=O)O)C2=O` (stereo not drawn), the TGI in assay [1], in [2], in assay [3], in [4], in assay [5] and in assay [6] was over 100 µM in each case.
In the case of `O=C(Nc1nccs1)c1cc(C2=CC=CC([N+](=O)[O-])C=C2)nc(=S)[nH]1` (stereo not drawn), the TGI in [1], in assay [2], in [3], in assay [4], in assay [5] and in assay [6] was over 100 µM throughout.
